The values below come from patent US20030036532A1, “Use of 2-phenylene diamine derivatives for the treatment of infections” (priority 2000, published 2003).

For the experiment, the system named is Plasmodium falciparum. The experiment can be described thus: antimalarial activity in in vitro cultures of Plasmodium falciparum, inhibition of [3H]-hypoxanthine incorporation. In kind it is cell-based. The settings on record: inhibition of tritium incorporation relative to comparison without substance, 48 h + 24 h incubation; for inhibition at 10 µM / inhibition at 100 µM: Plasmodium falciparum; for inhibition at 10 µM / % Inhibition at 10 μM: 10 μM compound; for inhibition at 100 µM / % Inhibition at 100 μM: 100 μM compound; for % Inhibition at 1 μM: 1 μM compound. How it is done:
To determine the anti-malaria activity, for example, the inhibition of the growth of malaria parasites in blood cultures is determined. […] The plates are incubated at 37° C., 3% CO2 and 5% O2 over a period of 48 hours. 30 μl of medium supplemented with 27 μCi ml^−1 [^3H]-hypoxanthine were then added to each well. After 24 hours' incubation, the parasites were harvested by filtration through glass fiber filters and the incorporated radioactivity was measured. Inhibition of parasite growth was measured as the percentage inhibition of tritium incorporation relative to a comparison without substance. The table states the percentage inhibition in dependence of the concentrations.

The inhibition is the change of the read-out against control, counted positive when it falls. With `O=C(C=Cc1ccc(OCc2ccccc2)cc1)NCCC(=O)Nc1ccc(NC(=O)Cc2ccccc2)c(C(=O)c2ccccc2)c1` [compound 13, N-[3-[3-benzoyl-4-[(2-phenylacetyl)amino]phenylamino]-3-oxopropyl]-4-benzyl-oxycinnamic Acid Amide], the inhibition at 10 µM turned out to be 97% and the inhibition at 100 µM came to 95%.
What is called % Inhibition is the relative decrease from the control value, in per cent. Consider `Cc1ccc(CC(=O)Nc2ccc(NC(=O)CCCC(=O)O)cc2C(=O)c2ccccc2)cc1` [example 5], for which the “% Inhibition at 10 μM” value is listed as 0% and the “% Inhibition at 100 μM” value turned out to be 59%.
As for `Cc1ccc(CC(=O)Nc2ccc(NC(=O)C3c4ccccc4-c4ccccc43)cc2C(=O)c2ccccc2)cc1` [compound 28], the “% Inhibition at 1 μM” value stood at 0%, the “% Inhibition at 10 μM” value is 0% and the “% Inhibition at 100 μM” value is reported as 98%.
Consider `COC(=O)CC(=O)Nc1ccc(NC(=O)Cc2ccc(C)cc2)c(C(=O)c2ccccc2)c1` [example 2], for which the “% Inhibition at 10 μM” value turned out to be 19% and the “% Inhibition at 100 μM” value turned out to be 95%.
For `Cc1ccc(CC(=O)Nc2ccc(NC(=O)CCC(=O)O)cc2C(=O)c2ccccc2)cc1` [example 3], the “% Inhibition at 10 μM” value is recorded as 0% and the “% Inhibition at 100 μM” value turned out to be 38%.
Take `Cc1ccc(CC(=O)Nc2ccc(NC(=O)c3cccc4ccccc34)cc2C(=O)c2ccccc2)cc1` [compound 26]: the “% Inhibition at 1 μM” value worked out at 0%, the “% Inhibition at 10 μM” value is reported as 65% and the “% Inhibition at 100 μM” value came out at 93%.
Regarding `Cc1ccc(CC(=O)Nc2ccc(NC(=O)C=Cc3ccc([N+](=O)[O-])cc3)cc2C(=O)c2ccccc2)cc1` [compound 22], the “% Inhibition at 1 μM” value was found to be 0%, the “% Inhibition at 10 μM” value was 82% and the “% Inhibition at 100 μM” value turned out to be 88%.
For the compound `Cc1ccc(CC(=O)Nc2ccc(NC(=O)C=Cc3ccc(OCc4ccccc4)cc3)cc2C(=O)c2ccccc2)cc1` [compound 24], the “% Inhibition at 1 μM” value is recorded as 85%, the “% Inhibition at 10 μM” value stood at 96% and the “% Inhibition at 100 μM” value was 97%.
The matching figures for `Cc1ccc(CC(=O)Nc2ccc(NC(=O)CCc3ccccc3)cc2C(=O)c2ccccc2)cc1` [compound 17]: 0%, 91% and 94%.
Turning to `CCCCCCCCCCCCCCCC(=O)NCCC(=O)Nc1ccc(NC(=O)Cc2ccccc2)c(C(=O)c2ccccc2)c1` [compound 11, N-[3-[3-benzoyl-4-[(2-phenylacetyl)amino]phenylamino]-3-oxopropyl]-hexadecanoic Acid Amide], the inhibition at 10 µM worked out at 0% and the inhibition at 100 µM was 98%.
In the case of `Cc1ccc(CC(=O)Nc2ccc(NC(=O)COCc3ccccc3)cc2C(=O)c2ccccc2)cc1` [compound 30], the “% Inhibition at 1 μM” value was determined as 0%, the “% Inhibition at 10 μM” value is given as 93% and the “% Inhibition at 100 μM” value came to 97%.
Consider `CCCCCCCCCCCCCCCCCCCC(=O)Nc1ccc(NC(=O)Cc2ccc(C)cc2)c(C(=O)c2ccccc2)c1` [compound 10, N-[3-benzoyl-4-[[2-(4-methylphenyl)acetyl]amino]phenyl]eicosanoic Acid Amide], for which the inhibition at 10 µM worked out at 0% and the inhibition at 100 µM came to 99%.
Regarding `Cc1ccc(CC(=O)Nc2ccc(NC(=O)Cc3ccccc3)cc2C(=O)c2ccccc2)cc1` [compound 16], the “% Inhibition at 1 μM” value amounted to 0%, the “% Inhibition at 10 μM” value amounted to 0% and the “% Inhibition at 100 μM” value is 94%.
Regarding `CCCCCCCCCCCCCCCCC(=O)NCC(=O)Nc1ccc(NC(=O)Cc2ccc(C)cc2)c(C(=O)c2ccccc2)c1` [example 7, N-[2-[3-benzoyl-4-[[2-(4-methylphenyl)acetyl]amino]phenylamino]-2-oxoethyl]-heptadecanoic Acid Amide], the inhibition at 10 µM came to 0% and the inhibition at 100 µM was 83%.
As to `COC(=O)CCCC(=O)Nc1ccc(NC(=O)Cc2ccc(C)cc2)c(C(=O)c2ccccc2)c1` [example 6], the “% Inhibition at 10 μM” value is given as 0% and the “% Inhibition at 100 μM” value turned out to be 98%.
With `Cc1ccc(CC(=O)Nc2ccc(NC(=O)C=Cc3ccc(-c4ccccc4)cc3)cc2C(=O)c2ccccc2)cc1` [compound 23, N-[3-[3-benzoyl-4-[2-(4-methylphenyl)acetyl]amino]phenylamino]-4-phenyl-cinnamic Acid Amide], the “% Inhibition at 1 μM” value came out at 82%, the “% Inhibition at 10 μM” value is recorded as 94% and the “% Inhibition at 100 μM” value is 94%.
With `COC(=O)CC(=O)Nc1ccc(NC(=O)C(C)c2ccccc2)c(C(=O)c2ccccc2)c1` (stereo not shown) [example 1, 2-[N-[3-[3-benzoyl-4-(2-phenylpropionyl)amino]phenylamino]carbamoyl]acetic Acid Methylester], the “% Inhibition at 10 μM” value was 19% and the “% Inhibition at 100 μM” value turned out to be 89%.
As for `Cc1ccc(CC(=O)Nc2ccc(NC(=O)CCC3CCCCC3)cc2C(=O)c2ccccc2)cc1` [compound 18], the “% Inhibition at 1 μM” value is reported as 9%, the “% Inhibition at 10 μM” value turned out to be 98% and the “% Inhibition at 100 μM” value came to 98%.
Turning to `Cc1ccc(CC(=O)Nc2ccc(NC(=O)C=Cc3ccccc3)cc2C(=O)c2ccccc2)cc1` [compound 21], the “% Inhibition at 1 μM” value came to 0%, the “% Inhibition at 10 μM” value was 95% and the “% Inhibition at 100 μM” value turned out to be 94%.
For `Cc1ccc(CC(=O)Nc2ccc(-c3ccccc3CNC(=O)CS)cc2C(=O)c2ccccc2)cc1` [compound 29], the “% Inhibition at 1 μM” value came to 0%, the “% Inhibition at 10 μM” value is on record as 91% and the “% Inhibition at 100 μM” value came out at 97%.
Take `Cc1ccc(CC(=O)Nc2ccc(NC(=O)CCCc3ccccc3)cc2C(=O)c2ccccc2)cc1` [compound 19]: the “% Inhibition at 1 μM” value was 0%, the “% Inhibition at 10 μM” value was 95% and the “% Inhibition at 100 μM” value is listed as 97%.
As to `Cc1ccc(CC(=O)Nc2ccc(NC(=O)CCCCc3ccccc3)cc2C(=O)c2ccccc2)cc1` [compound 20], the “% Inhibition at 1 μM” value is listed as 0%, the “% Inhibition at 10 μM” value was 94% and the “% Inhibition at 100 μM” value was found to be 97%.
Regarding `Cc1ccc(CC(=O)Nc2ccc(NC(=O)CSCc3ccc([N+](=O)[O-])cc3)cc2C(=O)c2ccccc2)cc1` [compound 32], the “% Inhibition at 1 μM” value was found to be 0%, the “% Inhibition at 10 μM” value is on record as 0% and the “% Inhibition at 100 μM” value amounted to 96%.
As to `CCCCCCCCCCCCCCC(=O)NCCCC(=O)Nc1ccc(NC(=O)Cc2ccc(C)cc2)c(C(=O)c2ccccc2)c1` [example 8, N-[4-[3-benzoyl-4-[[2-(4-methylphenyl)acetyl]amino]phenylamino]-4-oxobutyl]-pentadecanoic Acid Amide], the inhibition at 10 µM came to 0% and the inhibition at 100 µM came to 93%.
On to `CCCCCCCCCCCCCCNC(=O)CCCC(=O)Nc1ccc(NC(=O)Cc2ccc(C)cc2)c(C(=O)c2ccccc2)c1` [example 9], for which the “% Inhibition at 10 μM” value is recorded as 0% and the “% Inhibition at 100 μM” value stood at 96%.
In the case of `Cc1ccc(CC(=O)Nc2ccc(NC(=O)CNC(=O)C=Cc3ccc(-c4ccccc4)cc3)cc2C(=O)c2ccccc2)cc1` [compound 12, N-[2-[3-benzoyl-4-[[2-(4-methylphenyl)acetyl]amino]phenylamino]-2-oxo-ethyl]-4-phenylcinnamic Acid Amide], the inhibition at 10 µM amounted to 67% and the inhibition at 100 µM turned out to be 89%.
`Cc1ccc(CC(=O)Nc2ccc(NC(=O)c3cccnc3)cc2C(=O)c2ccccc2)cc1` [compound 14, N-[3-benzoyl-4-[2-(4-methylphenyl)acetyl]amino]phenylnicotinic Acid Amide]: the “% Inhibition at 10 μM” value is 0% and the “% Inhibition at 100 μM” value is on record as 34%.
Consider `COC(=O)CCC(=O)Nc1ccc(NC(=O)Cc2ccc(C)cc2)c(C(=O)c2ccccc2)c1` [example 4], for which the “% Inhibition at 10 μM” value was determined as 0% and the “% Inhibition at 100 μM” value came out at 29%.
With “N-[2-[3-benzoyl-4-[[2-(4-methylphenyl)acetyl]amino]phenylamino]-2-oxo-ethyl]-4-benzoic Acid Amide [compound 25]”, the “% Inhibition at 1 μM” value came to 0%, the “% Inhibition at 10 μM” value is recorded as 0% and the “% Inhibition at 100 μM” value was determined as 86%.
In the case of “N-[3-benzoyl-4-[2-(4-methylphenyl)acetyl]amino]phenyl]-4-(4-nitrophenyl)butyric Acid Amide [compound 31]”, the “% Inhibition at 1 μM” value is 0%, the “% Inhibition at 10 μM” value is reported as 93% and the “% Inhibition at 100 μM” value is on record as 96%.
Consider `Cc1ccc(CC(=O)Nc2ccc(NC(=O)c3ccccc3)cc2C(=O)c2ccccc2)cc1` [compound 15], for which the “% Inhibition at 1 μM” value was 0%, the “% Inhibition at 10 μM” value was determined as 77% and the “% Inhibition at 100 μM” value is on record as 96%.
